In brackets after ≈: the same amount, converted by molar mass.
Key:
Candida parapsilosis [1] = assay: Antifungal activity against Candida parapsilosis ATCC 22019 assessed as reduction in fungal growth incubated for 24 hrs by CLSI based serial microbroth dilution method; assay type: functional; details: Lodderomyces parapsilosis
Candida parapsilosis [2] = assay: Antifungal activity against Candida parapsilosis ATCC 22019 assessed as reduction in fungal growth incubated for 48 hrs by CLSI based serial microbroth dilution method; assay type: functional; details: Lodderomyces parapsilosis
Candida albicans [3] = assay: Antifungal activity against Candida albicans ATCC 24433 assessed as reduction in fungal growth incubated for 24 hrs by CLSI based serial microbroth dilution method; assay type: functional
Candida albicans [4] = assay: Antifungal activity against Candida albicans ATCC 24433 assessed as reduction in fungal growth incubated for 48 hrs by CLSI based serial microbroth dilution method; assay type: functional
Candida albicans [5] = assay: Antifungal activity against Candida albicans 8R assessed as reduction in fungal growth incubated for 24 hrs by CLSI based serial microbroth dilution method; assay type: functional
Candida albicans [6] = assay: Antifungal activity against Candida albicans 8R assessed as reduction in fungal growth incubated for 48 hrs by CLSI based serial microbroth dilution method; assay type: functional
Candida albicans [7] = assay: Antifungal activity against Candida albicans CBS 8837 assessed as reduction in fungal growth incubated for 24 hrs by CLSI based serial microbroth dilution method; assay type: functional
Candida albicans [8] = assay: Antifungal activity against Candida albicans CBS 8837 assessed as reduction in fungal growth incubated for 48 hrs by CLSI based serial microbroth dilution method; assay type: functional
Candida albicans [9] = assay: Antifungal activity against Candida albicans 604M assessed as reduction in fungal growth incubated for 24 hrs by CLSI based serial microbroth dilution method; assay type: functional
Candida albicans [10] = assay: Antifungal activity against Candida albicans 604M assessed as reduction in fungal growth incubated for 48 hrs by CLSI based serial microbroth dilution method; assay type: functional
Candida tropicalis [11] = assay: Antifungal activity against Candida tropicalis 3019 assessed as reduction in fungal growth incubated for 24 hrs by CLSI based serial microbroth dilution method; assay type: functional
Candida tropicalis [12] = assay: Antifungal activity against Candida tropicalis 3019 assessed as reduction in fungal growth incubated for 48 hrs by CLSI based serial microbroth dilution method; assay type: functional
Pichia kudriavzevii [13] = assay: Antifungal activity against Candida krusei 432M assessed as reduction in fungal growth incubated for 24 hrs by CLSI based serial microbroth dilution method; assay type: functional
Pichia kudriavzevii [14] = assay: Antifungal activity against Candida krusei 432M assessed as reduction in fungal growth incubated for 48 hrs by CLSI based serial microbroth dilution method; assay type: functional
Cryptococcus neoformans [15] = assay: Antifungal activity against Cryptococcus neoformans assessed as reduction in fungal growth incubated for 24 hrs by CLSI based serial microbroth dilution method; assay type: functional
Cryptococcus neoformans [16] = assay: Antifungal activity against Cryptococcus neoformans assessed as reduction in fungal growth incubated for 48 hrs by CLSI based serial microbroth dilution method; assay type: functional
Aspergillus niger [17] = assay: Antifungal activity against Aspergillus niger 37a assessed as reduction in fungal growth incubated for 24 hrs by CLSI based serial microbroth dilution method; assay type: functional
Aspergillus niger [18] = assay: Antifungal activity against Aspergillus niger 37a assessed as reduction in fungal growth incubated for 48 hrs by CLSI based serial microbroth dilution method; assay type: functional
Microsporum canis [19] = assay: Antifungal activity against Microsporum canis B-200 assessed as reduction in fungal growth incubated for 24 hrs by CLSI based serial microbroth dilution method; assay type: functional
Microsporum canis [20] = assay: Antifungal activity against Microsporum canis B-200 assessed as reduction in fungal growth incubated for 48 hrs by CLSI based serial microbroth dilution method; assay type: functional
Cyberlindnera jadinii [21] = assay: Antifungal activity against Candida utilis 84 assessed as reduction in fungal growth incubated for 24 hrs by CLSI based serial microbroth dilution method; assay type: functional; details: Williopsis jadinii
Cyberlindnera jadinii [22] = assay: Antifungal activity against Candida utilis 84 assessed as reduction in fungal growth incubated for 48 hrs by CLSI based serial microbroth dilution method; assay type: functional; details: Williopsis jadinii
Trichophyton rubrum [23] = assay: Antifungal activity against Trichophyton rubrum 2002 assessed as reduction in fungal growth incubated for 24 hrs by CLSI based serial microbroth dilution method; assay type: functional
Trichophyton rubrum [24] = assay: Antifungal activity against Trichophyton rubrum 2002 assessed as reduction in fungal growth incubated for 48 hrs by CLSI based serial microbroth dilution method; assay type: functional
Nakaseomyces glabratus [25] = assay: Antifungal activity against Candida glabrata 61L assessed as reduction in fungal growth incubated for 24 hrs by CLSI based serial microbroth dilution method; assay type: functional
Nakaseomyces glabratus [26] = assay: Antifungal activity against Candida glabrata 61L assessed as reduction in fungal growth incubated for 48 hrs by CLSI based serial microbroth dilution method; assay type: functional
[27] = 1-octanol/aqueous buffer distribution coefficient, logP of the compound at pH 7.4; assay type: physicochemical

Structure (SMILES) | MIC (Candida parapsilosis [1]) [µg/mL] | MIC (Candida parapsilosis [2]) [µg/mL] | MIC (Candida albicans [3]) [µg/mL] | MIC (Candida albicans [4]) [µg/mL] | MIC (Candida albicans [5]) [µg/mL] | MIC (Candida albicans [6]) [µg/mL] | MIC (Candida albicans [7]) [µg/mL] | MIC (Candida albicans [8]) [µg/mL] | MIC (Candida albicans [9]) [µg/mL] | MIC (Candida albicans [10]) [µg/mL] | MIC (Candida tropicalis [11]) [µg/mL] | MIC (Candida tropicalis [12]) [µg/mL] | MIC (Pichia kudriavzevii [13]) [µg/mL] | MIC (Pichia kudriavzevii [14]) [µg/mL] | MIC (Cryptococcus neoformans [15]) [µg/mL] | MIC (Cryptococcus neoformans [16]) [µg/mL] | MIC (Aspergillus niger [17]) [µg/mL] | MIC (Aspergillus niger [18]) [µg/mL] | MIC (Microsporum canis [19]) [µg/mL] | MIC (Microsporum canis [20]) [µg/mL] | other results
O=c1c2sc(=S)n(-c3ccc(F)cc3)c2ncn1CCCN1CCN(CC(O)(Cn2cncn2)c2ccc(F)cc2F)CC1 (stereo not drawn) | 0.06 (≈ 0.0934 µM) | 0.125 (≈ 0.194 µM) | 8 (≈ 12.4 µM) | 8 (≈ 12.4 µM) | 32 (≈ 49.8 µM) | 32 (≈ 49.8 µM) | 16 (≈ 24.9 µM) | 32 (≈ 49.8 µM) | 32 (≈ 49.8 µM) | 32 (≈ 49.8 µM) | 4 (≈ 6.22 µM) | 4 (≈ 6.22 µM) | 8 (≈ 12.4 µM) | 16 (≈ 24.9 µM) | 16 (≈ 24.9 µM) | 16 (≈ 24.9 µM) | 16 (≈ 24.9 µM) | 16 (≈ 24.9 µM) | 4 (≈ 6.22 µM) | 4 (≈ 6.22 µM) | MIC (Cyberlindnera jadinii [21]): 1 µg/mL (≈ 1.56 µM); MIC (Cyberlindnera jadinii [22]): 1 µg/mL (≈ 1.56 µM); MIC (Trichophyton rubrum [23]): 32 µg/mL (≈ 49.8 µM); MIC (Trichophyton rubrum [24]): 32 µg/mL (≈ 49.8 µM); MIC (Nakaseomyces glabratus [25]): 4 µg/mL (≈ 6.22 µM); MIC (Nakaseomyces glabratus [26]): 32 µg/mL (≈ 49.8 µM)
Cc1ccc(-n2c(=S)sc3c(=O)n(CCN4CCN(CC(O)(Cn5cncn5)c5ccc(F)cc5F)CC4)cnc32)cc1 (stereo not drawn) | 0.5 (≈ 0.8 µM) | 0.5 (≈ 0.8 µM) | 8 (≈ 12.8 µM) | 16 (≈ 25.6 µM) | 32 (≈ 51.2 µM) | 32 (≈ 51.2 µM) | 16 (≈ 25.6 µM) | 32 (≈ 51.2 µM) | 16 (≈ 25.6 µM) | 32 (≈ 51.2 µM) | 4 (≈ 6.4 µM) | 8 (≈ 12.8 µM) | 16 (≈ 25.6 µM) | 32 (≈ 51.2 µM) | 32 (≈ 51.2 µM) | 32 (≈ 51.2 µM) | 32 (≈ 51.2 µM) | 32 (≈ 51.2 µM) | 32 (≈ 51.2 µM) | 32 (≈ 51.2 µM) | logD [27]: 2.9; MIC (Cyberlindnera jadinii [21]): 2 µg/mL (≈ 3.2 µM); MIC (Cyberlindnera jadinii [22]): 4 µg/mL (≈ 6.4 µM); MIC (Trichophyton rubrum [23]): 32 µg/mL (≈ 51.2 µM); MIC (Trichophyton rubrum [24]): 32 µg/mL (≈ 51.2 µM); MIC (Nakaseomyces glabratus [25]): 4 µg/mL (≈ 6.4 µM); MIC (Nakaseomyces glabratus [26]): 32 µg/mL (≈ 51.2 µM)
COc1ccccc1-n1c(=S)sc2c(=O)n(CC(=O)NCC(O)(Cn3cncn3)c3ccc(F)cc3F)cnc21 (stereo not drawn) | – | – | – | – | – | – | – | – | – | – | – | – | – | – | – | – | – | – | – | – | logD [27]: 0.8
COc1ccccc1-n1c(=S)sc2c(=O)n(CC(O)(Cn3cncn3)c3ccc(F)cc3F)cnc21 (stereo not drawn) | – | – | – | – | – | – | – | – | – | – | – | – | – | – | – | – | – | – | – | – | logD [27]: 1.19
O=c1c2sc(=S)n(-c3ccc(F)cc3)c2ncn1CCN1CCN(CC(O)(Cn2cncn2)c2ccc(F)cc2F)CC1 (stereo not drawn) | 0.5 (≈ 0.795 µM) | 1 (≈ 1.59 µM) | 8 (≈ 12.7 µM) | 8 (≈ 12.7 µM) | 32 (≈ 50.9 µM) | 32 (≈ 50.9 µM) | 32 (≈ 50.9 µM) | 32 (≈ 50.9 µM) | 32 (≈ 50.9 µM) | 32 (≈ 50.9 µM) | 32 (≈ 50.9 µM) | 32 (≈ 50.9 µM) | 32 (≈ 50.9 µM) | 32 (≈ 50.9 µM) | 32 (≈ 50.9 µM) | 32 (≈ 50.9 µM) | 32 (≈ 50.9 µM) | 32 (≈ 50.9 µM) | 32 (≈ 50.9 µM) | 32 (≈ 50.9 µM) | MIC (Cyberlindnera jadinii [21]): 32 µg/mL (≈ 50.9 µM); MIC (Cyberlindnera jadinii [22]): 32 µg/mL (≈ 50.9 µM); MIC (Trichophyton rubrum [23]): 32 µg/mL (≈ 50.9 µM); MIC (Trichophyton rubrum [24]): 32 µg/mL (≈ 50.9 µM); MIC (Nakaseomyces glabratus [25]): 32 µg/mL (≈ 50.9 µM); MIC (Nakaseomyces glabratus [26]): 32 µg/mL (≈ 50.9 µM)
COc1ccccc1-n1c(=S)sc2c(=O)n(CC(O)CN3CCN(CC(O)(Cn4cncn4)c4ccc(F)cc4F)CC3)cnc21 (stereo not drawn) | – | – | – | – | – | – | – | – | – | – | – | – | – | – | – | – | – | – | – | – | logD [27]: 2.91
OC(Cn1cncn1)(Cn1cncn1)c1ccc(F)cc1F [FLUCONAZOLE] | 2 (≈ 6.53 µM) | 4 (≈ 13.1 µM) | 4 (≈ 13.1 µM) | 4 (≈ 13.1 µM) | 128 (≈ 418 µM) | 128 (≈ 418 µM) | 128 (≈ 418 µM) | 128 (≈ 418 µM) | 64 (≈ 209 µM) | 64 (≈ 209 µM) | 1 (≈ 3.27 µM) | 2 (≈ 6.53 µM) | 32 (≈ 104 µM) | 64 (≈ 209 µM) | 16 (≈ 52.2 µM) | 16 (≈ 52.2 µM) | 64 (≈ 209 µM) | 64 (≈ 209 µM) | 32 (≈ 104 µM) | 32 (≈ 104 µM) | MIC (Cyberlindnera jadinii [21]): 2 µg/mL (≈ 6.53 µM); MIC (Cyberlindnera jadinii [22]): 2 µg/mL (≈ 6.53 µM); MIC (Trichophyton rubrum [23]): 64 µg/mL (≈ 209 µM); MIC (Trichophyton rubrum [24]): 128 µg/mL (≈ 418 µM); MIC (Nakaseomyces glabratus [25]): 8 µg/mL (≈ 26.1 µM); MIC (Nakaseomyces glabratus [26]): 32 µg/mL (≈ 104 µM)

Source: ChEMBL document CHEMBL4819051, “Synthesis and antifungal activity of new hybrids thiazolo[4,5-d]pyrimidines with (1H-1,2,4)triazole” (Bioorg Med Chem Lett, 2021)
